Where two headings read alike, the source gives them in different places.
Key:
pAKT in BT474 cells = assay: Cell-based pAKT HTRF assay in BT474 cells; conditions: BT474 cells, 4 hr incubation, read-out: pAKT inhibition IC50 in BT474 cells
Procedure, shortened: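 Cells are seeded on day 1 and dosed on day 2 with a 9-point curve (3 μM top, 3-fold). After 4 hr they are lysed and the lysate is mixed with d2- and Eu Cryptate-labelled antibodies. HTRF is read after 4–24 h at room temperature.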

[1] = target: Cys242 in human PIK3CA (157-299) (Homo sapiens (Human), UniProt P42336); assay: Covalent modification assay using MALDI-TOF MS; format: biochemical; conditions: 4 h reaction time point
Procedure, shortened: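 PIK3CA (157-299), 3.33 or 1 μM in 20 mM HEPES, 150 mM NaCl, 2 mM MgCl2, pH 7.3, was incubated with compound at room temperature in the dark for 15 min, 30 min, 2 h or 4 h. Linear MALDI-TOF read-out; % modification = adduct peak height over summed heights of all protein species.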

[2] = Homo sapiens, BT-474, Compounds 10-999
[3] = 3.33 μM protein target, 1:7.5 protein to compound ratio (compounds 1-852)
[4] = 1 μM protein target, 1:5 protein to compound ratio (compounds 853-1279)

Chain of Cys242 in human PIK3CA (157-299) (P42336 157-299): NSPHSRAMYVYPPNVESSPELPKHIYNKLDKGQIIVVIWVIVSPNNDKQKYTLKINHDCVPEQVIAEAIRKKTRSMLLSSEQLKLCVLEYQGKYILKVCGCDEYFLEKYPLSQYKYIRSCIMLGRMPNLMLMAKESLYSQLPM

Row | IC50 (pAKT in BT474 cells; [2]) [nM] | IC50 (pAKT in BT474 cells; Compounds 10-999) [nM] | IC50 (pAKT in BT474 cells; Compounds 1000-1279) [nM] | SMILES | % of modification [1, 3] | % of modification [1, 4]
1 | > 3000 |  |  | C=CC(=O)N1CCn2nc(-c3nc(-c4cnn(C)c4)c(Cl)cc3-c3ccc(F)cc3OCCOC)cc2C1 [Compound 355, 1-[2-[5-chloro-3-[4-fluoro-2-(2-methoxyethoxy)phenyl]-6-(1-methylpyrazol-4-yl)-2-pyridyl]-6,7-dihydro-4H-pyrazolo[1,5-a]pyrazin-5-yl]prop-2-en-1-one] | A (percent of modification of PIK3CA protein ≥75%) | 
2 |  | < 100 |  | C=CC(=O)N1CCc2cc(-c3nc(-c4cnn(C)c4)c4ccsc4c3-c3c(F)cc(F)cc3OC(C)C)nn2CC1 [Compound 569] | A (percent of modification of PIK3CA protein ≥75%) | 
3 |  |  | 100 to 1000 | C=CC(=O)N1CCn2nc(-c3nc(N4Cc5cn(C)nc5C4)c4ccsc4c3-c3c(F)cc(F)cc3OCCOC)cc2C1C (stereo not drawn) [Compound 1230] |  | A (percent of modification of PIK3CA protein ≥75%)
4 | < 100 |  |  | C=CC(=O)N1[C@H](C)Cn2nc(-c3nc(-c4ccc5c(c4)CCN(C)C5)c4ccsc4c3-c3c(F)cc(F)cc3OCCOC)cc2[C@@H]1C [Compound 480, 1-((4S,6R)-2-(7-(2,4-difluoro-6-(2-methoxyethoxy)phenyl)-4-(2-methyl-1,2,3,4-tetrahydroisoquinolin-6-yl)thieno[3,2-c]pyridin-6-yl)-4,6-dimethyl-6,7-dihydropyrazolo[1,5-a]pyrazin-5(4H)-yl)prop-2-en-1-one] | A (percent of modification of PIK3CA protein ≥75%) | 
5 |  | < 100 |  | C=CC(=O)N1CCn2nc(-c3nc(-c4ccc5c(c4)CNC5=O)c4ccsc4c3-c3c(F)cc(F)cc3OCCOC)cc2[C@H]1C [Compound 617, 5-((S)-6-((R)-5-acryloyl-4-methyl-4,5,6,7-tetrahydropyrazolo[1,5-a]pyrazin-2-yl)-7-(2,4-difluoro-6-(2-methoxyethoxy)phenyl)thieno[3,2-c]pyridin-4-yl)isoindolin-1-one] | A (percent of modification of PIK3CA protein ≥75%) | 
6 |  | 100 to 1000 |  | C=CC(=O)N1CC(n2cc(-c3nc(-c4ccc5c(c4)CCNCC5)c4ccsc4c3-c3ccc(F)cc3OC)cn2)C1 [Compound 102] | A (percent of modification of PIK3CA protein ≥75%) | 
7 |  | < 100 |  | C=CC(=O)N1CCn2nc(-c3nc(-c4ccnc(N)c4)c4ccsc4c3-c3ccc(F)cc3OC(F)F)nc2C1 [Compound 217] | A (percent of modification of PIK3CA protein ≥75%) | 
8 |  |  | < 100 | C=CC(=O)N1CCn2nc(-c3nc(-c4ccc(C(=O)N5CCN(C)CC5)cc4)c4ccsc4c3-c3c(F)cc(F)cc3OCCOC)cc2C1C (stereo not drawn) [Compound 1096] |  | A (percent of modification of PIK3CA protein ≥75%)
9 |  |  | < 100 | C=CC(=O)N1CCc2cc(-c3nc(-c4ccc5c(c4)CCNC5=O)c4ccsc4c3-c3c(F)cc(F)cc3OCCO)nn2CC1 [Compound 1202] |  | A (percent of modification of PIK3CA protein ≥75%)
10 |  | 100 to 1000 |  | C=C(F)C(=O)N1CCn2nc(-c3nc(-c4ccc5c(c4)CCN(C)C5)c4ccsc4c3-c3ccc(F)cc3OCC(F)F)cc2C1 [Compound 325] | B (50%<percent of modification <75%) | 
11 |  |  | < 100 | C=CC(=O)N1CCc2ncc(-c3nc(-c4ccc5c(c4)CCN(C)CC5)c4ccsc4c3-c3c(F)cc(F)cc3OCCOC)cc2C1 [Compound 1085] |  | A (percent of modification of PIK3CA protein ≥75%)
12 |  |  | < 100 | C=CC(=O)N1CCn2nc(-c3nc(-c4ccc(OCC5CN(C)C5)nc4)c4ccsc4c3-c3c(F)cc(F)cc3OCCOC)cc2C1C (stereo not drawn) [Compound 1201] |  | A (percent of modification of PIK3CA protein ≥75%)
13 |  |  | < 100 | C=CC(=O)N1CCn2nc(-c3nc(-c4ccc5c(cnn5C)c4)c4ccsc4c3-c3c(F)cc(F)cc3OCCOC(F)F)cc2C1C (stereo not drawn) [Compound 1234] |  | A (percent of modification of PIK3CA protein ≥75%)
14 |  | 100 to 1000 |  | C=CC(=O)N1CC[C@H](n2cc(-c3nc(-c4ccc5c(c4)CCNC5)c4ccsc4c3-c3ccc(F)cc3OCCOC)ccc2=O)[C@H]1C [Compound 188] | A (percent of modification of PIK3CA protein ≥75%) | 
15 |  | < 100 |  | C=CC(=O)N1CCc2nc(-c3nc(-c4cnn(CC(C)(C)O)c4)c4ccsc4c3-c3c(F)cc(F)cc3OC(C)C)sc2C1 [Compound 344] | A (percent of modification of PIK3CA protein ≥75%) | 
16 |  | 100 to 1000 |  | C=CC(=O)N1CCc2nc(-c3nc(-c4ccn(C(F)F)c(=O)c4)c4ccsc4c3-c3c(F)cc(F)cc3OC(C)C)sc2C1 [Compound 362] | A (percent of modification of PIK3CA protein ≥75%) | 
17 |  | < 100 |  | C=CC(=O)N1CC[C@H](n2ccc(-c3nc(-c4cnn(C)c4)c4ccsc4c3-c3ccc(F)cc3OC(C)C)n2)C1 [Compound 318] | A (percent of modification of PIK3CA protein ≥75%) | 

Row | IC50 (pAKT in BT474 cells; [2]) [nM] | IC50 (pAKT in BT474 cells; Compounds 10-999) [nM] | IC50 (pAKT in BT474 cells; Compounds 1000-1279) [nM] | SMILES | % of modification [1, 3] | % of modification [1, 4]
18 |  | < 100 |  | C=CC(=O)N1Cc2cc(-c3nc(-c4ccc5nn(C)cc5c4)c4ccsc4c3-c3c(F)cc(F)cc3OC(C)C)nn2C[C@H]1C [Compound 525] | A (percent of modification of PIK3CA protein ≥75%) | 
19 | < 100 |  |  | C=CC(=O)N1CCn2nc(-c3nc(-c4ccc5c(c4)C(=O)NC5)c4ccsc4c3-c3c(F)cc(F)cc3OCCO)cc2[C@H]1C [Compound 852, 6-((S)-6-((R)-5-acryloyl-4-methyl-4,5,6,7-tetrahydropyrazolo[1,5-a]pyrazin-2-yl)-7-(2,4-difluoro-6-(2-hydroxyethoxy)phenyl)thieno[3,2-c]pyridin-4-yl)isoindolin-1-one] | A (percent of modification of PIK3CA protein ≥75%) | 
20 |  | < 100 |  | C=CC(=O)N1CCn2nc(-c3nc(-c4ccc5c(c4)CCN(C)C5=O)c4ccsc4c3-c3c(F)cc(F)cc3OCCO)cc2C1C (stereo not drawn) [Compound 995] |  | A (percent of modification of PIK3CA protein ≥75%)
21 |  | < 100 |  | C=CC(=O)N1CCn2nc(-c3nc(-c4ccnc(N)c4)c4ccsc4c3-c3ccc(F)cc3OCCOC)nc2C1 [Compound 193] | A (percent of modification of PIK3CA protein ≥75%) | 
22 |  |  | > 1000 | C#CC(=O)N1CCn2nc(-c3nc(-c4ccc5c(cnn5C)c4)c4ccsc4c3-c3c(F)cc(F)cc3OCCOC)cc2[C@H]1C [Compound 1229] |  | A (percent of modification of PIK3CA protein ≥75%)
23 |  | < 100 |  | C=CC(=O)N1CCc2ncc(-c3nc(-c4cnc(C)n4C)c4ccsc4c3-c3c(F)cc(F)cc3OC(C)C)cc2C1 [Compound 412] | A (percent of modification of PIK3CA protein ≥75%) | 
24 |  | < 100 |  | C=CC(=O)N1CCn2nc(-c3nc(-c4ccc5c(c4)CCN(C)C5)c4ccsc4c3-c3c(F)cc(F)cc3OCCO)cc2C1C (stereo not drawn) [Compound 533] | A (percent of modification of PIK3CA protein ≥75%) | 
25 |  | < 100 |  | C=CC(=O)N1CCn2nc(-c3nc(-c4cnn(C)c4)c4ccsc4c3-c3ccc(F)cc3OCC3CCNC(=O)C3)cc2C1 (stereo not drawn) [Compound 212] | A (percent of modification of PIK3CA protein ≥75%) | 
26 |  | 100 to 1000 |  | C=CC(=O)N1CCc2nc(-c3nc(-c4ccc(C(C)(C)C#N)cc4)c4ccsc4c3-c3c(F)cc(F)cc3OCCOC)sc2C1 [Compound 439] | D (percent of modification <25%) | 
27 |  | < 100 |  | C=CC(=O)N1CCn2nc(-c3nc(-c4cnc5c(cnn5C)c4)c4ccsc4c3-c3c(F)cc(F)cc3OC[C@@H](C)O)cc2[C@H]1C [Compound 893] |  | A (percent of modification of PIK3CA protein ≥75%)
28 |  | 1000 to 3000 |  | C=CC(=O)N1CCc2nc(-c3nc(-c4ccc5c(c4)CCN(C)C5)c4ccsc4c3-c3c(F)cc(F)cc3OCCOC)sc2C1 (single isomer, unassigned) [Compound 449] | D (percent of modification <25%) | 
29 | 100 to 1000 |  |  | C=CC(=O)N1CCc2ncc(-c3nc(-c4ccc5c(c4)CCNC5)c4c(c3-c3ccc(F)cc3OC)CCC4)cc2C1 [Compound 89, 1-[3-[4-(4-fluoro-2-methoxy-phenyl)-1-(1,2,3,4-tetrahydroisoquinolin-6-yl)-6,7-dihydro-5H-cyclopenta[c]pyridin-3-yl]-7,8-dihydro-5H-1,6-naphthyridin-6-yl]prop-2-en-1-one] | A (percent of modification of PIK3CA protein ≥75%) | 
30 |  | < 100 |  | C=CC(=O)N1CCn2nc(-c3nc(-c4ccnc(N)c4)c4ccsc4c3-c3ccc(F)cc3OCC3CCNC(=O)C3)cc2C1 (stereo not drawn) [Compound 249] | A (percent of modification of PIK3CA protein ≥75%) | 
31 |  | < 100 |  | C=CC(=O)N1CCn2nc(-c3nc(N4CCN(C(C)C)CC4)c4ccsc4c3-c3ccc(F)cc3OCCOC)cc2C1 [Compound 209] | A (percent of modification of PIK3CA protein ≥75%) | 
32 |  | 1000 to 3000 |  | C=CC(=O)N1CC(n2cc(-c3nc(-c4ccc5c(c4)CCNC5)c4ccsc4c3-c3cccc(=O)n3CCOC)cn2)C1 [Compound 170] | D (percent of modification <25%) | 
33 |  |  | < 100 | C=CC(=O)N1CCn2nc(-c3nc(-c4ccc(CC(=O)N(C)C)cc4)c4ccsc4c3-c3c(F)cc(F)cc3OC)cc2[C@H]1C (single isomer, unassigned) [Compound 1146] |  | A (percent of modification of PIK3CA protein ≥75%)

Reference: patent US20250230138A1, “COMPOUNDS HAVING A T-STRUCTURE FORMED BY AT LEAST FOUR CYCLES FOR USE IN THE TREATMENT OF CANCER AND OTHER INDICATIONS” (TheRas, Inc., priority 2022, published 2025)
